{"source": "paper doi:10.1101/2023.07.10.548257", "about": "(bioRxiv, 2024)", "key": {"full-length SHP2^WT": {"molecular_target": "T1, full-length SHP2^WT (Homo sapiens, UniProt Q06124)", "T1 construct": "Full-length SHP2 constructs were diluted in assay buffer; His6-TEV (N, cleaved yes); made in house; host or cells: E. coli BL21(DE3)", "T1 sequence (Q06124 1-593)": "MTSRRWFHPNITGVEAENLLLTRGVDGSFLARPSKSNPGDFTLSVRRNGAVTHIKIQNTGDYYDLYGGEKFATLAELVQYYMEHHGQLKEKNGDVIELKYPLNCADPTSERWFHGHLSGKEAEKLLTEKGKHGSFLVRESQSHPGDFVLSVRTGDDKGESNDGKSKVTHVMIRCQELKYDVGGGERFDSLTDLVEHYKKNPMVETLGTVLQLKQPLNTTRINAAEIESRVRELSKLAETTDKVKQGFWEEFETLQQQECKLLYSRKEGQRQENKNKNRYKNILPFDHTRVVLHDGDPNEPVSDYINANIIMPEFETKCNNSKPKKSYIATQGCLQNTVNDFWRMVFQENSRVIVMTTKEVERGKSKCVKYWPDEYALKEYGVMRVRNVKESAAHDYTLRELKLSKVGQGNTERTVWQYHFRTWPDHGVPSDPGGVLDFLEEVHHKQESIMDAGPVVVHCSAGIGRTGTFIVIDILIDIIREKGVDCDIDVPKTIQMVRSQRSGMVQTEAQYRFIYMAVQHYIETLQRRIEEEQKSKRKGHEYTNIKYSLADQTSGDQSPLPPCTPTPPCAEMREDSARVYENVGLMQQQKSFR", "assay": "SHP2 activation assay using phosphopeptides (DiFMUP), SHP2 WT", "assay_type": "biochemical", "conditions": "activation of full-length SHP2 WT (0.05 nM) by phosphopeptide; DiFMUP substrate; 60 mM HEPES pH 7.2, 75 mM KCl, 75 mM NaCl, 1 mM EDTA, 0.05% Tween-20, 0.5 mM TCEP; fluorescence read every 25 s for 6 min; mean of N (column N)", "procedure": "SHP2 activation assays using phosphopeptides\nFull-length SHP2 constructs were diluted in assay buffer (60 mM HEPES pH 7.2, 75 mM KCl, 75 mM NaCl,1 mM EDTA, 0.05% Tween-20, with 0.5 mM TCEP freshly added) to a 2X concentration of 0.1 nM. Peptides were serially diluted in assay buffer, with the last point of the concentration series fully without peptide. 15 μL of peptide and 15 μL of 800 μM DiFMUP was added to a black 96-well half area plate. Right before starting the plate reader assay, 30 μL SHP2 was added to each well a Supplementary Information - page 4 of 18 […]\nfinal concentration of 0.05nM. Kinetic measurements (Ex 358/Em […]) were taken on a BioTek Neo2 plate reader every 25 seconds for 6 minutes. […]\nOD600 reached 0.5. 20 mL of cell suspension was induced at 25 °C using a final concentration of 0.4% arabinose until the OD600 ~ 1 (after approximately 4 hours). The cells were spun down at 4000 rpm for 15 minutes, and the pellet was resuspended in PBS so that the OD600 ~1.5. The cells were stored in the fridge and used within a week.\nFor each sample, 75 μL of Dynabeads™ FlowComp™ Flexi Kit were washed twice in 1 mL SH2 buffer (50 mM HEPES pH 7.5, 150 mM NaCl, 1 mM TCEP, and 0.2% BSA) on a magnetic rack.\nThe beads were then resuspended in 75 μL of SH2 buffer. SH2 domains were thawed quickly and 20 μM of protein was added to the beads. SH2 buffer was added up to 150 μL, and the suspension was incubated for 1 hour at 4 °C while rotating. After 1 hour, the suspension was placed on a magnetic rack and washed twice with 1 mL SH2 buffer.\nPreparing the phosphorylated cells\n150 μL of prepared cells per sample were spun down for 4000 rpm for 5 minutes at 4 °C.\nKinase screen buffer was prepared (50 mM Tris, 10 mM magnesium chloride, 150 mM sodium chloride; add 2 mM sodium orthovanadate and 1 mM TCEP fresh) and the cells of each sample were resuspended in 100 μL kinase screen buffer. Kinases c-Src, c-Abl, AncSZ, Eph1B were added to a final concentration of 2.5 µM each, creatine phosphate was added to a final concentration of 5 mM, and phosphokinase was added to a final concentration of 50 µg/mL. The suspension was incubated at 37 °C for 5 minutes before ATP was added to a final concentration of 1 mM. This mixture was incubated at 37 °C for 3 hours. After 3 hours, EDTA was added to a final concentration of 25 mM to quench the reaction. The input library control sample was not phosphorylated. These cells were spun down at 4000 rpm for 15 minutes at 4 °C. The cells were then resuspended in 100 µL of SH2 buffer + 0.1% BSA. Phosphorylation of the cells was confirmed by labeling with the PY20-PerCP-eFluor 710 pan-phosphotyrosine antibody followed by analysis via flow cytometry.\nEnriching for cells displaying high-affinity phosphopeptide ligands\n100 μL of phosphorylated cells were mixed with 75 µL SH2-beads for 1 hour at 4 °C while rotating. After 1 hour, samples were placed on a magnetic rack, supernatant was removed and 1 mL SH2 buffer was added to each sample. This was rotated for 30 minutes at 4 °C to wash the beads.\nAfter this wash, the beads were placed on a magnetic rack, the supernatant was removed and 50 µL […]\nPreparing sequencing samples & deep sequencing\nAll SH2-selected samples and the input library control were resuspended in 50 µL MilliQ water, vortexed, and boiled for 10 minutes at 100 °C. The boiled lysate was used as the DNA template in a PCR reaction using the TruSeq-eCPX-Fwd and TruSeq-eCPX-Rev primers. The mixture resulting from this PCR was used directly into a second PCR to append Illumina sequencing adaptors and Supplementary Information - page 5 of 18"}, "full-length SHP2^T42A": {"molecular_target": "T2, full-length SHP2^T42A (Homo sapiens, UniProt Q06124, T42A)", "T2 construct": "Full-length SHP2 constructs were diluted in assay buffer; His6-TEV (N, cleaved yes); made in house; host or cells: E. coli BL21(DE3)", "T2 sequence (Q06124 1-593 T42A)": "T1 sequence (Q06124 1-593) with T42A", "assay": "SHP2 activation assay using phosphopeptides (DiFMUP), SHP2 T42A", "assay_type": "biochemical", "conditions": "activation of full-length SHP2 T42A (0.05 nM) by phosphopeptide; DiFMUP substrate; HEPES pH 7.2 assay buffer; mean of N (column N)"}}, "note": "Positions count from the first letter of the chain named.", "data": [{"smiles": "CC[C@H](C)[C@H](NC(=O)[C@@H](NC(=O)[C@H](C)NC(=O)[C@H](Cc1ccc(OP(=O)(O)O)cc1)NC(=O)[C@@H](NC(=O)[C@@H]1CCCN1C(=O)[C@H](CCC(=O)O)NC(=O)[C@@H]1CCCN1C(=O)[C@H](CO)NC(=O)[C@@H](NC(C)=O)C(C)C)[C@@H](C)CC)[C@@H](C)O)C(=O)N[C@@H](CC(=O)O)C(=O)N[C@@H](CC(=O)O)C(=O)N[C@@H](CC(C)C)C(N)=O", "values": [{"measurement": "EC50", "setting": "full-length SHP2^WT", "result": 39.4, "unit": "µM"}, {"measurement": "EC50", "setting": "full-length SHP2^T42A", "result": 6.96, "unit": "µM"}]}, {"smiles": "CC(=O)N[C@@H](CO)C(=O)N[C@H](C(=O)NCC(=O)N[C@@H](CO)C(=O)N[C@H](C(=O)N[C@@H](CC(=O)O)C(=O)N[C@@H](Cc1ccc(OP(=O)(O)O)cc1)C(=O)N[C@@H](CC(C)C)C(=O)N[C@@H](C)C(=O)N[C@@H](CC(C)C)C(=O)N[C@@H](CC(=O)O)C(=O)N[C@@H](Cc1ccccc1)C(=O)N[C@@H](CCC(N)=O)C(N)=O)C(C)C)[C@@H](C)O", "values": [{"measurement": "EC50", "setting": "full-length SHP2^WT", "result": 8.52, "unit": "µM"}, {"measurement": "EC50", "setting": "full-length SHP2^T42A", "result": 0.902, "unit": "µM"}]}, {"smiles": "CC[C@H](C)[C@H](NC(=O)[C@H](Cc1ccc(OP(=O)(O)O)cc1)NC(=O)[C@H](CC(N)=O)NC(=O)[C@H](CC(C)C)NC(=O)CNC(=O)[C@H](CC(N)=O)NC(=O)[C@H](CCC(=O)O)NC(=O)[C@H](CC(C)C)NC(C)=O)C(=O)N[C@@H](CC(=O)O)C(=O)N[C@@H](CC(C)C)C(=O)N[C@@H](CC(=O)O)C(=O)N[C@@H](CC(C)C)C(=O)N[C@H](C(N)=O)C(C)C", "values": [{"measurement": "EC50", "setting": "full-length SHP2^WT", "result": 1.75, "unit": "µM"}, {"measurement": "EC50", "setting": "full-length SHP2^T42A", "result": 0.581, "unit": "µM"}]}, {"smiles": "CC[C@H](C)[C@H](NC(=O)[C@H](CC(N)=O)NC(=O)[C@@H](NC(=O)[C@H](Cc1ccc(OP(=O)(O)O)cc1)NC(=O)[C@H](CCC(=O)O)NC(=O)CNC(=O)[C@@H]1CCCN1C(=O)[C@H](CO)NC(=O)[C@H](CCCCN)NC(=O)[C@@H]1CCCN1C(C)=O)C(C)C)C(=O)N[C@@H](CCC(=O)O)C(=O)N[C@@H](Cc1ccccc1)C(=O)NCC(N)=O", "values": [{"measurement": "EC50", "setting": "full-length SHP2^WT", "result": 29.3, "unit": "µM"}, {"measurement": "EC50", "setting": "full-length SHP2^T42A", "result": 20, "unit": "µM"}]}, {"smiles": "CSCC[C@H](NC(=O)[C@H](CC(C)C)NC(=O)[C@H](CCC(N)=O)NC(=O)[C@H](C)NC(=O)[C@H](Cc1ccc(OP(=O)(O)O)cc1)NC(=O)[C@H](CC(N)=O)NC(=O)[C@H](CC(C)C)NC(=O)[C@H](C)NC(=O)[C@H](C)NC(=O)[C@H](CCCCN)NC(=O)[C@H](CCCCN)NC(C)=O)C(=O)N[C@@H](Cc1ccccc1)C(=O)N1CCC[C@H]1C(N)=O", "values": [{"measurement": "EC50", "setting": "full-length SHP2^WT", "result": 1.32, "unit": "µM"}, {"measurement": "EC50", "setting": "full-length SHP2^T42A", "result": 0.735, "unit": "µM"}]}, {"smiles": "CC(=O)N[C@@H](C)C(=O)N[C@@H](CCCCN)C(=O)N[C@@H](CO)C(=O)NCC(=O)N[C@@H](C)C(=O)N[C@H](C(=O)N[C@@H](Cc1ccc(OP(=O)(O)O)cc1)C(=O)N[C@@H](CO)C(=O)N[C@@H](CCC(=O)O)C(=O)N[C@@H](CC(C)C)C(=O)N[C@@H](CC(N)=O)C(=O)N[C@@H](Cc1ccccc1)C(=O)NCC(N)=O)C(C)C", "values": [{"measurement": "EC50", "setting": "full-length SHP2^WT", "result": 233, "unit": "µM"}, {"measurement": "EC50", "setting": "full-length SHP2^T42A", "result": 32.7, "unit": "µM"}]}, {"smiles": "CC(=O)N1CCC[C@H]1C(=O)N[C@H](C(=O)N[C@@H](Cc1ccccc1)C(=O)N[C@@H](CO)C(=O)N[C@H](C(=O)N[C@@H](CC(=O)O)C(=O)N[C@@H](Cc1ccc(OP(=O)(O)O)cc1)C(=O)NCC(=O)N[C@@H](CCC(=O)O)C(=O)N[C@@H](CC(C)C)C(=O)N[C@@H](CC(=O)O)C(=O)N[C@@H](Cc1ccccc1)C(=O)N[C@@H](CCC(N)=O)C(N)=O)C(C)C)C(C)C", "values": [{"measurement": "EC50", "setting": "full-length SHP2^WT", "result": 18.9, "unit": "µM"}, {"measurement": "EC50", "setting": "full-length SHP2^T42A", "result": 2.89, "unit": "µM"}]}, {"smiles": "CC[C@H](C)[C@H](NC(=O)[C@@H](NC(=O)[C@H](C)NC(=O)[C@H](Cc1ccc(OP(=O)(O)O)cc1)NC(=O)[C@H](CCC(=O)O)NC(=O)[C@@H](NC(=O)[C@H](CCC(N)=O)NC(=O)[C@H](CCC(=O)O)NC(=O)[C@@H]1CCCN1C(=O)[C@@H](NC(C)=O)C(C)C)[C@@H](C)O)[C@@H](C)O)C(=O)N[C@H](C(=O)N[C@@H](Cc1ccccc1)C(=O)N1CCC[C@H]1C(N)=O)C(C)C", "values": [{"measurement": "EC50", "setting": "full-length SHP2^WT", "result": 5.37, "unit": "µM"}, {"measurement": "EC50", "setting": "full-length SHP2^T42A", "result": 0.88, "unit": "µM"}]}, {"smiles": "CC[C@H](C)[C@H](NC(=O)[C@H](CC(=O)O)NC(=O)[C@H](C)NC(=O)[C@H](Cc1ccc(OP(=O)(O)O)cc1)NC(=O)[C@H](CCCCN)NC(=O)[C@@H](NC(=O)[C@H](CC(=O)O)NC(=O)CNC(=O)[C@H](CCCCN)NC(=O)[C@H](CCSC)NC(C)=O)C(C)C)C(=O)N[C@@H](CCC(=O)O)C(=O)N[C@@H](CO)C(=O)N[C@@H](CO)C(N)=O", "values": [{"measurement": "EC50", "setting": "full-length SHP2^WT", "result": 90.5, "unit": "µM"}, {"measurement": "EC50", "setting": "full-length SHP2^T42A", "result": 15.1, "unit": "µM"}]}]}
